This is an account of results in patent US9944654B2, “Nargenicin compounds and uses thereof as antibacterial agents” (priority 2014, dated 2018).

≈ marks a conversion by molar mass, not a printed value. Where two headings read alike, the source gives them in different places. A value given as a limit tells only on which side of the number the result lay.

In test [1] the target is T1, E. coli DnaE (DNA polymerase III α-subunit from Escherichia coli) (Escherichia coli, UniProt P10443).
T1 construct: EcDnaE (E. coli DnaE residues 1-1160); 6xHis (N); made in house; host or cells: E. coli BL21(DE3)
T1 sequence (P10443 whole entry, the tested form may be a part): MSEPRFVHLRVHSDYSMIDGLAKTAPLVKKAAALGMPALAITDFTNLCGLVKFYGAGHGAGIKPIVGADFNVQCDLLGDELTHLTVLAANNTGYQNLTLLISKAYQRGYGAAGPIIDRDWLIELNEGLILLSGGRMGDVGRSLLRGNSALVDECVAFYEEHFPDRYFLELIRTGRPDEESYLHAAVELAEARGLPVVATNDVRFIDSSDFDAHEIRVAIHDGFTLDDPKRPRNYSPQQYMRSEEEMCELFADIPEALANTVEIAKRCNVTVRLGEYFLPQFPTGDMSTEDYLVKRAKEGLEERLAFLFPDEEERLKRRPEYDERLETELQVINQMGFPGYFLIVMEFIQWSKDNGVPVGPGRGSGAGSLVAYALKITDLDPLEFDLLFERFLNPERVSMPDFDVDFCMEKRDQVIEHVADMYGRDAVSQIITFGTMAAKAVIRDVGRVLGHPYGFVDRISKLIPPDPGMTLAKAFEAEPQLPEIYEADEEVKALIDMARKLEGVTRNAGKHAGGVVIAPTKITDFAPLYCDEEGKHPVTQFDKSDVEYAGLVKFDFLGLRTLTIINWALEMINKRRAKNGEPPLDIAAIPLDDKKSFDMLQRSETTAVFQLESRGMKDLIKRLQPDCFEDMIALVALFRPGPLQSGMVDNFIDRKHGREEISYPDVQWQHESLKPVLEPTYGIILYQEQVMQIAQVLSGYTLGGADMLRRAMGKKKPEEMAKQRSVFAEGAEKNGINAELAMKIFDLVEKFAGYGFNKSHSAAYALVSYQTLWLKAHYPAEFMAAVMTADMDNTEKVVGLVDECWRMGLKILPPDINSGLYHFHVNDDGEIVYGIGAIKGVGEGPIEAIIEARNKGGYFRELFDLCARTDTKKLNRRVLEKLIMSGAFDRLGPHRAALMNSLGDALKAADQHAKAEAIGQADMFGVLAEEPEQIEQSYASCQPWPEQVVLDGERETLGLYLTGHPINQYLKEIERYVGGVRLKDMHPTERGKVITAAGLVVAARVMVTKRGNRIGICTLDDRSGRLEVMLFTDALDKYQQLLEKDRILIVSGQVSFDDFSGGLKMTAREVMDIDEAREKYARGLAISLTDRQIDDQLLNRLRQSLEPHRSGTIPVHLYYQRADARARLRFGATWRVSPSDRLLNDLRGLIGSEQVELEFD
The experiment in a line: In vitro DnaE single enzyme assay (E. coli). The test is classed as biochemical. In outline: (§1)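 His-tagged E. coli DnaE (residues 1-1160, 0.8 μg/ml) or S. aureus DnaE (residues 1-1065, 0.05 μg/ml) incubated 30 min at 30° C. with activated calf thymus DNA, 0.025 mM dATP/dGTP/dCTP and 0.011 mM 3H-dTTP in Tris pH 7.5/Mg acetate. TCA-precipitated labelled DNA counted.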

In test [2] the target is T2, S. aureus DnaE (DNA polymerase III α-subunit homolog from Staphylococcus aureus) (Staphylococcus aureus, UniProt Q5HF71).
T2 construct: SaDnaE (S. aureus DnaE residues 1-1065); 6xHis (N); made in house; host or cells: E. coli BL21-AI
T2 sequence (Q5HF71 1-1065): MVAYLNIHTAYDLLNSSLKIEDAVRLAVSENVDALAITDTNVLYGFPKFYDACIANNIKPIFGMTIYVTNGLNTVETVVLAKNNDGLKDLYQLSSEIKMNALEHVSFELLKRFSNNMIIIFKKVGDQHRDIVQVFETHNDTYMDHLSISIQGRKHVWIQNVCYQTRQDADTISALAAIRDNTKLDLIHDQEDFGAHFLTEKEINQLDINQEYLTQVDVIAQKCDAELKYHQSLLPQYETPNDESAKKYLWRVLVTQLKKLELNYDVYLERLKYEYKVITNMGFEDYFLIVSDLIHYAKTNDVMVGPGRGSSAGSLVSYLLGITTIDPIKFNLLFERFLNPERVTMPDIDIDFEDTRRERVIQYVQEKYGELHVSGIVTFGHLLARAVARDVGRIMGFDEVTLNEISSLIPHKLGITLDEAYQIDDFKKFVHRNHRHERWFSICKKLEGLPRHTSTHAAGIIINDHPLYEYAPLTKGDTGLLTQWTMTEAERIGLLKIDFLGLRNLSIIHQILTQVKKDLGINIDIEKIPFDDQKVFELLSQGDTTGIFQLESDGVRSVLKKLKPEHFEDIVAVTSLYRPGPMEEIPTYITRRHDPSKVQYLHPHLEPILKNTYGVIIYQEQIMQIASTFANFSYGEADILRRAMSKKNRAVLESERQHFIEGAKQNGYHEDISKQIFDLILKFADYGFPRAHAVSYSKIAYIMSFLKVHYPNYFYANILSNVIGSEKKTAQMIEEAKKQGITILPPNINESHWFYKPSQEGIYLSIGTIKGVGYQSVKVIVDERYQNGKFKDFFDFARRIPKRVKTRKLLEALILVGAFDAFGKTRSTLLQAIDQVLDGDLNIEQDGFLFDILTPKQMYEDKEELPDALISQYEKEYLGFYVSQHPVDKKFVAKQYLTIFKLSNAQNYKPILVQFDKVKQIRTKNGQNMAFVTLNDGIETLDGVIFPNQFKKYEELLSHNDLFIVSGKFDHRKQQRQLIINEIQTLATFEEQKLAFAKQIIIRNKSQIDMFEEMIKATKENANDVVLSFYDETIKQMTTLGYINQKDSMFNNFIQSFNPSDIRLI
The experiment in a line: biochemical. It counts as biochemical. In outline: as §1

Test [3] has as its system Escherichia coli MB5747 (LS 883, tolC). In words: microbe, parasite or virus in culture. Conditions: * = some reduction of growth versus control at […]; for E. coli LS883 tolC (MIC): MHII broth; for MIC: Escherichia coli, read-out: E. coli LS883 tolC (MIC), MHII broth. It counts as cell-based.
The subject of test [4] is Pseudomonas aeruginosa MB5890 (CB1101, efflux-deleted). The experiment in a line: microbe, parasite or virus in culture. The following applies: * = some reduction of growth versus control at […]; for P. aeruginosa MB5890 efflux-del (MIC): MHII broth; for MIC: Pseudomonas aeruginosa, read-out: P. aeruginosa MB5890 efflux-del (MIC), MHII broth. It counts as cell-based.
Test [5] has as its system Staphylococcus aureus MB6266 (MRSA COL). The experiment in a line: Nargenicin antibacterial assay (MIC), S. aureus. The following applies: * = some reduction of growth versus control at […]; for S. aureus COL (MIC): MHII broth + 50% human serum; for MIC: Staphylococcus aureus, MRSA, read-out: S. aureus COL (MIC), MHII broth + 50% human serum. The test is classed as cell-based.

In test [6] the test system is Streptococcus pneumoniae MB6357 (CL 2883). In words: Nargenicin antibacterial assay (MIC), S. pneumoniae. Conditions: * = some reduction of growth versus control at […]; for S. pneumoniae MB2883 (MIC): Isosensitest broth; for MIC: Streptococcus pneumoniae, read-out: S. pneumoniae MB2883 (MIC), Isosensitest broth. It counts as cell-based.
Setting [7] is: read-out: E. coli DnaE IC50 (converted).

Take `CO[C@H]1C[C@H]2C=CC3C4[C@H](O)[C@@H](C)[C@@H](OC(=O)c5ccc[nH]5)[C@@H]3O[C@]42/C(C)=C/[C@@H](C)[C@@H]([C@@H](C)OC(=O)C(=O)NCc2ccccc2CN(C)C)OC1=O` [Example 141]: in test [1], the “E. coli DnaE IC50” value turned out to be 1 µg/mL. Moreover, the “S. aureus DnaE IC50” value in test [2] was <0.006 µg/mL. The “E. coli LS883 tolC (MIC)” value in test [3] came out at 0.25 µg/mL. Also, in test [4], the “P. aeruginosa MB5890 efflux-del (MIC)” value was determined as 4 µg/mL. The “S. aureus COL (MIC)” value in test [5] came to 0.25 µg/mL. Moreover, the “S. pneumoniae MB2883 (MIC)” value in test [6] is recorded as >128* μg/mL.
The IC50 is the midpoint of a concentration-inhibition curve. In the case of `CO[C@H]1CC2C=C[C@H]3[C@H]4O[C@]2(/C(C)=C/[C@@H](C)[C@@H]([C@@H](C)O)OC1=O)[C@@H]3[C@H](OC(=O)NS(=O)(=O)c1ccccc1)[C@@H](C)[C@H]4OC(=O)c1ccc[nH]1` (stereo partly drawn) [Example 40, (3R,4S,7S,10aR,11R,12R,13R,14R,14aS,14bS,E)-4-((R)-1-hydroxyethyl)-7-methoxy-1,3,13-trimethyl-6-oxo-14-(((phenylsulfonyl)carbamoyl)oxy)-3,4,6,7,8,8a,10a,11,12,13,14,14a-dodecahydro-11,14b-epoxynaphtho[2,1-e]oxecin-12-yl 1H-pyrrole-2-carboxylate], the figures for the 50% inhibitory concentration (IC50) in test [1] (setting [7]) and in test [2] (S. aureus DnaE IC50) were > 143 µM and 1.57 µM, respectively. Moreover, the MIC in test [3], in test [4], in test [5] and in test [6] was > 128 µg/mL in each case.
For the compound `CO[C@H]1CC2C=C[C@H]3[C@H]4O[C@]2(/C(C)=C/[C@@H](C)[C@@H]([C@@H](C)OC(=O)C[n+]2ccccc2)OC1=O)[C@@H]3[C@H](O)[C@@H](C)[C@H]4OC(=O)c1ccc[nH]1` (stereo partly drawn) [Example 71], the IC50 in test [1] (setting [7]) was 18.9 µM; in test [2] (S. aureus DnaE IC50), < 0.00944 µM. For the same compound, the MIC in test [3] is 0.25 µg/mL; in test [4], 8 µg/mL; in test [5], 0.25 µg/mL; in test [6] it was > 128 µg/mL.
As for `CO[C@H]1CC2C=C[C@H]3[C@H]4O[C@]2(/C(C)=C/[C@@H](C)[C@@H](C(C)O)OC1=O)[C@@H]3[C@H](O)[C@@H](C)[C@H]4OC(=O)c1[nH]c(I)c(I)c1I` (stereo partly drawn) [Example 42], the IC50 in test [1] (setting [7]) is 44.8 µM; in test [2] (S. aureus DnaE IC50) it was 4.48 µM. The MIC in test [3] is > 128 µg/mL; in test [4], > 128 µg/mL; in test [5] it was 32 µg/mL; in test [6], 1 µg/mL (≈ 1.12 µM).
In the case of `CO[C@H]1CC2C=C[C@H]3[C@H]4O[C@]2(/C(C)=C/[C@@H](C)[C@@H](C(C)O)OC1=O)[C@@H]3[C@H](O)[C@@H](C)[C@H]4OC(=O)c1ccc[nH]1` (stereo partly drawn) [Nar, Nargenicin], the IC50 was 0.776 to 5.04 µM in test [1] (setting [7]) and 0.000388 to 0.0116 µM in test [2] (read-out: S. aureus DnaE IC50). Moreover, the “E. coli LS883 tolC (MIC)” value in test [3] lay in the range of 0.25 to 0.5 µg/mL. Also, the “P. aeruginosa MB5890 efflux-del (MIC)” value in test [4] is 8 µg/mL. The “S. aureus COL (MIC)” value in test [5] was in the range of 0.25 to 0.5 µg/mL. Besides, in test [6], the “S. pneumoniae MB2883 (MIC)” value is >64 µg/mL.
As to `CO[C@H]1C[C@H]2CC(=O)[C@H]3[C@H]4O[C@]2(/C(C)=C/[C@@H](C)[C@@H]([C@@H](C)O)OC1=O)[C@@H]3[C@H](O)[C@@H](C)[C@H]4OC(=O)c1ccc[nH]1` [Example 181], the results for the IC50 in test [1] (setting [7]) and in test [2] (S. aureus DnaE IC50) were > 188 µM and 0.0941 µM, respectively. The MIC in test [3] is 8 µg/mL (≈ 15 µM); in test [4], 32 µg/mL (≈ 60.2 µM); in test [5] it was 64 µg/mL; in test [6], > 128 µg/mL.
For `CO[C@H]1C[C@H]2C=C[C@H]3[C@H]4O[C@]2(/C(C)=C/[C@@H](C)[C@H](C)OC1=O)[C@@H]3[C@H](O)[C@@H](C)[C@H]4OC(=O)c1ccc[nH]1` [Example 48, (3R,4S,7S,8aS,10aR,11R,12R,13R,14R,14aS,14bS,E)-14-hydroxy-7-methoxy-1,3,4,13-tetramethyl-6-oxo-3,4,6,7,8,8a,10a,11,12,13,14,14a-dodecahydro-11,14b-epoxynaphtho[2,1-e]oxecin-12-yl 1H-pyrrole-2-carboxylate], the IC50 in test [1] (E. coli DnaE IC50) was > 206 µM; in test [2] (S. aureus DnaE IC50), 0.165 µM. In addition, the MIC in test [3] was 64 µg/mL (≈ 132 µM); in test [4] it was > 128 µg/mL; in test [5], > 128 µg/mL; in test [6], 128 µg/mL (≈ 264 µM).
For the compound `CO[C@H]1C[C@H]2C=CC3C4[C@H](O)[C@@H](C)[C@@H](OC(=O)c5ccc[nH]5)[C@@H]3O[C@]42/C(C)=C/[C@@H](C)[C@@H]([C@@H](C)OC(=O)C(=O)NCc2ccccc2)OC1=O` [Example 114, (3R,4S,7S,8aS,11R,12R,13R,14R,14bS,E)-4-((R)-1-(2-(benzylamino)-2-oxoacetoxy)ethyl)-14-hydroxy-7-methoxy-1,3,13-trimethyl-6-oxo-3,4,6,7,8,8a,10a,11,12,13,14,14a-dodecahydro-11,14b-epoxynaphtho[2,1-e]oxecin-12-yl 1H-pyrrole-2-carboxylate], the IC50 is 16.3 µM in test [1] (E. coli DnaE IC50) and < 0.00887 µM in test [2] (S. aureus DnaE IC50). Further, the MIC is 0.25 µg/mL (≈ 0.369 µM) in test [3], 8 µg/mL (≈ 11.8 µM) in test [4], < 0.125 µg/mL in test [5] and > 128 µg/mL in test [6].
Consider `CO[C@H]1CC2C=C[C@H]3[C@H]4O[C@]2(/C(C)=C/[C@@H](C)[C@@H]([C@@H](C)OC(=O)C[n+]2ccc(C(N)=O)cc2)OC1=O)[C@@H]3[C@H](O)[C@@H](C)[C@H]4OC(=O)c1ccc[nH]1` (stereo partly drawn) [Example 70], for which the half-inhibitory concentration (IC50) was 13.3 µM in test [1] (setting [7]) and < 0.00884 µM in test [2] (S. aureus DnaE IC50). Also, the MIC is 0.5 µg/mL in test [3], 16 µg/mL in test [4], 0.5 µg/mL in test [5] and > 128 µg/mL in test [6].
As to `CO[C@H]1C[C@H]2C=C[C@H]3[C@H]4O[C@]2(/C(C)=C/[C@@H](C)[C@@H]([C@@H](C)O)OC1=O)[C@@H]3[C@H](O)C(C)[C@@H]4NCCN.O=C(O)C(F)(F)F` (stereo partly drawn) [Example 155], the IC50 in test [1] (E. coli DnaE IC50) is > 173 µM; in test [2] (read-out: S. aureus DnaE IC50 (converted)), 2.59 µM. Further, the MIC is > 128 µg/mL in test [3], 128 µg/mL in test [4], > 128 µg/mL in test [5] and > 128 µg/mL in test [6].
As to `CO[C@H]1C[C@H]2C=CC3C4[C@H](O)[C@@H](C)[C@@H](OC(=O)c5ccc[nH]5)[C@@H]3O[C@]42/C(C)=C/[C@@H](C)[C@@H]([C@@H](C)OC(=O)C(=O)OCCN2CCCC2)OC1=O.O=C(O)C(F)(F)F` [Example 212], the 50% inhibitory concentration (IC50) in test [1] (setting [7]) is 3.76 µM; in test [2] (S. aureus DnaE IC50), < 0.00751 µM. The MIC is 4 µg/mL in test [3], 128 µg/mL in test [4], 4 µg/mL in test [5] and > 128 µg/mL in test [6].
Consider `COCCNC(=O)C(=O)O[C@H](C)[C@H]1OC(=O)[C@@H](OC)C[C@H]2C=CC3C4[C@H](O)[C@@H](C)[C@@H](OC(=O)c5ccc[nH]5)[C@@H]3O[C@]42/C(C)=C/[C@H]1C` [Example 119], for which the “E. coli DnaE IC50” value in test [1] was determined as 11 µg/mL. In addition, the “S. aureus DnaE IC50” value in test [2] stood at 0.0012 µg/mL. Besides, the “E. coli LS883 tolC (MIC)” value in test [3] was determined as 0.25 µg/mL. Moreover, the “P. aeruginosa MB5890 efflux-del (MIC)” value in test [4] worked out at 8 µg/mL. Besides, the “S. aureus COL (MIC)” value in test [5] is ≤0.125 µg/mL. Besides, the “S. pneumoniae MB2883 (MIC)” value in test [6] is >128* μg/mL.
